Source: the supplement of paper PMC10627819

What was measured:
Assay in all cases: fitness (endpoint OD595 vs no drug) (fraction); higher = more growth
S. aureus DSM 20231 = test system: S. aureus DSM 20231
In short: (§1)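 Fitness was measured as bacterial growth in 384-well plates inoculated at OD595 0.01 (30 µl, or 55 µl for S. pneumoniae). Media were TSB, LB Lennox or CY, at 37 °C. OD595 was read every 30 min for 14 h and background-subtracted against the first reading. Fitness is OD595 at the transition into stationary phase divided by the robust mean of no-drug control wells, capped at 1.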

S. aureus Newman = test system: S. aureus Newman
In short: as §1

B. subtilis 168 = test system: B. subtilis 168
In short: as §1

S. pneumoniae D39V = test system: S. pneumoniae D39V
In short: as §1
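Also: OD595 on entry to stationary phase over no-drug wells; at most 1.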

O=C(N[C@H](CO)[C@H](O)c1ccc([N+](=O)[O-])cc1)C(Cl)Cl [Chloramphenicol] + CN(C)[C@@H]1C(O)=C(C(N)=O)C(=O)[C@@]2(O)C(O)=C3C(=O)c4c(O)ccc(Cl)c4[C@@](C)(O)[C@H]3C[C@@H]12 [Chlortetracycline]
S. aureus DSM 20231, partner 0.006 µg/mL, one replicate
Details	fitness
first compound 0.75 µg/mL	0.62
first compound 1.5 µg/mL	0.558

fitness, S. aureus DSM 20231
Details	first compound 0.75 µg/mL	first compound 1.5 µg/mL	first compound 3 µg/mL
partner 0.012 µg/mL	0.476	–	0.0949
partner 0.024 µg/mL	0.288	–	0.0799
partner 0.048 µg/mL	–	0.127	0.0661

O=C(N[C@H](CO)[C@H](O)c1ccc([N+](=O)[O-])cc1)C(Cl)Cl [Chloramphenicol] + CO/N=C(\C(=O)N[C@@H]1C(=O)N2C(C(=O)O)=C(COC(C)=O)CS[C@H]12)c1csc(N)n1 [Cefotaxime]
fitness
Details	first compound 0.75 µg/mL	first compound 1.5 µg/mL	first compound 3 µg/mL
S. aureus DSM 20231, partner 0.039 µg/mL	0.649	0.629	0.137
S. aureus DSM 20231, partner 0.078 µg/mL	0.672	0.618	0.191
S. aureus DSM 20231, partner 0.156 µg/mL	0.641	0.599	0.194
S. aureus Newman, partner 0.078 µg/mL	0.534	0.321	0.136
S. aureus Newman, partner 0.156 µg/mL	0.406	0.206	0.0948
S. aureus Newman, partner 0.312 µg/mL	0.198	0.0711	0.065

fitness, one replicate
Details	first compound 0.75 µg/mL	first compound 1.5 µg/mL	first compound 3 µg/mL
S. aureus DSM 20231, partner 0.312 µg/mL	0.607	0.586	0.227
S. aureus Newman, partner 0.625 µg/mL	0.0565	0.0229	0.0195
S. aureus Newman, partner 1.25 µg/mL	0.0337	0.0237	0.0515
S. aureus Newman, partner 2.5 µg/mL	0.0674	0.0266	0.0651

O=C(N[C@H](CO)[C@H](O)c1ccc([N+](=O)[O-])cc1)C(Cl)Cl [Chloramphenicol] + CO/N=C(\C(=O)N[C@@H]1C(=O)N2C(C(=O)[O-])=C(C[N+]3(C)CCCC3)CS[C@H]12)c1csc(N)n1 [Cefepime]
fitness
Details	partner 0.125 µg/mL	partner 0.25 µg/mL	partner 0.5 µg/mL
S. aureus DSM 20231, first compound 0.75 µg/mL	0.749	0.83	0.811
S. aureus DSM 20231, first compound 1.5 µg/mL	0.661	0.699	0.645
S. aureus DSM 20231, first compound 3 µg/mL	0.19	0.22	0.233
S. aureus Newman, first compound 0.75 µg/mL	0.756	0.685	0.611
S. aureus Newman, first compound 3 µg/mL	–	0.275	0.234

O=C(N[C@H](CO)[C@H](O)c1ccc([N+](=O)[O-])cc1)C(Cl)Cl [Chloramphenicol] + CO[C@@]12[C@H](COC(N)=O)C3=C(C(=O)C(C)=C(N)C3=O)N1C[C@@H]1N[C@@H]12 [Mitomycin C]
fitness
Details	first compound 0.75 µg/mL	first compound 1.5 µg/mL	first compound 3 µg/mL
S. aureus DSM 20231, partner 0.0156 µg/mL	0.598	0.431	0.0667
S. aureus DSM 20231, partner 0.0312 µg/mL	0.572	0.367	0.0823
S. aureus DSM 20231, partner 0.0625 µg/mL	0.453	0.245	0.0494
S. aureus Newman, partner 0.0156 µg/mL	0.577	0.442	0.259
S. aureus Newman, partner 0.0312 µg/mL	0.537	0.363	0.144
S. aureus Newman, partner 0.0625 µg/mL	0.399	0.3	0.0938

O=C(N[C@H](CO)[C@H](O)c1ccc([N+](=O)[O-])cc1)C(Cl)Cl [Chloramphenicol] + N[C@@H]1CONC1=O [Cycloserine D]
fitness
Details	partner 0.375 µg/mL	partner 0.75 µg/mL	partner 1.5 µg/mL
S. aureus DSM 20231, first compound 0.75 µg/mL	0.642	0.662	0.66
S. aureus DSM 20231, first compound 3 µg/mL	0.0914	0.0972	0.0952
S. aureus Newman, first compound 0.75 µg/mL	0.813	0.824	0.801
S. aureus Newman, first compound 1.5 µg/mL	0.573	0.542	0.571
S. aureus Newman, first compound 3 µg/mL	0.201	0.164	0.165

CCC[C@@H]1C[C@@H](C(=O)N[C@@H]([C@H]2O[C@H](SC)[C@H](O)[C@@H](O)[C@H]2O)[C@H](C)Cl)N(C)C1 [Clindamycin] + CC1=C(C(=O)O)N2C(=O)[C@@H](NC(=O)[C@H](N)c3ccccc3)[C@H]2SC1 [Cephalexin]
fitness, one replicate
Details	first compound 0.0039 µg/mL	first compound 0.0078 µg/mL	first compound 0.015 µg/mL	first compound 0.0156 µg/mL	first compound 0.03 µg/mL	first compound 0.06 µg/mL
B. subtilis 168, partner 0.25 µg/mL	≥ 1	0.863	–	0.839	–	–
B. subtilis 168, partner 0.5 µg/mL	0.984	0.844	–	0.868	–	–
B. subtilis 168, partner 1 µg/mL	0.96	0.886	–	0.883	–	–
S. pneumoniae D39V, partner 0.125 µg/mL	–	–	0.898	–	0.751	0.642
S. pneumoniae D39V, partner 0.25 µg/mL	–	–	0.87	–	0.799	0.667
S. pneumoniae D39V, partner 0.5 µg/mL	–	–	0.899	–	0.836	0.645

Details	fitness
B. subtilis 168, first compound 0.0625 µg/mL, partner 0.125 µg/mL	0.556
B. subtilis 168, first compound 0.0625 µg/mL, partner 0.25 µg/mL	0.465
B. subtilis 168, first compound 0.0625 µg/mL, partner 0.5 µg/mL	0.482
B. subtilis 168, first compound 0.125 µg/mL, partner 0.125 µg/mL	0.376
B. subtilis 168, first compound 0.125 µg/mL, partner 0.25 µg/mL	0.344
B. subtilis 168, first compound 0.125 µg/mL, partner 0.5 µg/mL	0.348
B. subtilis 168, first compound 0.25 µg/mL, partner 0.125 µg/mL	0.351
B. subtilis 168, first compound 0.25 µg/mL, partner 0.25 µg/mL	0.335
B. subtilis 168, first compound 0.25 µg/mL, partner 0.5 µg/mL	0.34
S. aureus Newman, first compound 0.0312 µg/mL, partner 0.5 µg/mL	0.795
S. aureus Newman, first compound 0.0312 µg/mL, partner 1 µg/mL	0.82
S. pneumoniae D39V, first compound 0.0125 µg/mL, partner 1 µg/mL	0.733
S. pneumoniae D39V, first compound 0.0125 µg/mL, partner 2 µg/mL	0.453
S. pneumoniae D39V, first compound 0.0125 µg/mL, partner 4 µg/mL	0.0549
S. pneumoniae D39V, first compound 0.025 µg/mL, partner 1 µg/mL	0.519
S. pneumoniae D39V, first compound 0.025 µg/mL, partner 2 µg/mL	0.294
S. pneumoniae D39V, first compound 0.025 µg/mL, partner 4 µg/mL	0.0703
S. pneumoniae D39V, first compound 0.05 µg/mL, partner 1 µg/mL	0.179
S. pneumoniae D39V, first compound 0.05 µg/mL, partner 2 µg/mL	0.114
S. pneumoniae D39V, first compound 0.05 µg/mL, partner 4 µg/mL	0.0475
